{"source": "patent US12178840B2", "about": "“Method and compositions comprising a CT20 peptide” (UNIVERSITY OF CENTRAL FLORIDA RESEARCH FOUNDATION, INC., priority 2014, dated 2024)", "type_in_all_cases": "cell-based, human", "key": {"MDA-MB-231 cells [1]": {"tested_on": "MDA-MB-231 cells", "assay": "Timeline of biological effects of CT20 in HBPE-NPs in breast cancer cells", "settings": "CT20 (˜3.4 nM) in HBPE-NPs", "method": "CT20 peptide impaired mitochondrial movement (mitotracker green) (A) leading to clustering (JC-1 probe) (B) and reduced F-actin (green) polymerization (nucleus, DAPI, blue (C). Referring to FIG. 3D, the viability of cells was determined by measuring membrane permeability (Sytox) and membrane asymmetry (violet ratiometric dye). Gates are: N, necrotic; V, viable; A, apoptotic. Percentages are V (black) and N+A (red). Referring to FIG. 3E, by 6 hours, cells detach from substrate (fibronectin). Referring to FIG. 3F, membrane levels of β1 integrin decrease. Referring to FIG. 3G-3I, post-cell detachment events include caspase activation, autophagy, and increased ROS production. Referring to FIG. 3J, apoptosis/anoikis was detected between 24-48 hours as described for 3D.\nThis triggered hyperpolarization of the mitochondrial membrane and fusion-like aggregation (FIG. 3B) that impaired mitochondrial redistribution, ATP production, and F-actin polymerization (FIG. 3C). Cells remained viable during these “initiating events” (FIG. 3D). However, at 6 hours post-CT20 treatment, cells began detaching from the substrate (fibronectin) (FIG. 3E). This was preceded by decreased expression of integrins (β1 integrin is shown; FIG. 3F). By 24 hours post-CT20 treatment, “effector events” caused by peptide-induced detachment were detected, including the activation of caspases (FIG. 3G), the induction of autophagy (FIG. 3H), and increased ROS production (FIG. 3I). Cell death (anoikis), indicated by membrane asymmetry, was detected in cancer cells by 48 hours (FIG. 3J)."}, "[2]": {"tested_on": "TNBC cell lines and MCF-10A", "assay": "Metabolic stress tests (Seahorse, oxygen consumption and extracellular acidification)", "settings": "75 ug/mL for 24 hours before the assay", "method": "Measurement of oxygen consumption and extracellular acidification: 24-well culture plates for use with the Seahorse XFe24 analyzer were coated with Cell-Tak (BD Bioscience) at 3.5 ug/cm2. Cells were then seeded at 60,000 cells/well and allowed to adhere overnight. Measurements of oxygen consumption rate and extracellular acidification rate were obtained using a Seahorse XFe 24 analyzer (Seahorse Bioscience). To obtain mitochondrial metabolic profiles, injections of oligomycin (1 uM), FCCP (0.3 uM), rotenone (0.1 uM), and antimycin A (2 uM) were performed. The mitochondrial coupling efficiency was calculated as: [1−(minimum oligomycin response/final basal measurement)]×100. To obtain glycolytic metabolic profiles, injections of glucose (10 mM), oligomycin (1 uM), and 2-deoxy-D-glucose (100 mM) were performed. Glycolytic reserve capacity was calculated as: maximum oligomycin response−maximum glucose response. […] Metabolic capacity was defined as the maximum recorded measurement in both mitochondrial and glycolytic contexts. CT20p-treated results were calculated as a percentage of untreated results.\nThe effect of CT20p on cellular metabolism was also examined by pre-treating the cells with CT20p prior to running metabolic stress tests. Glycolytic capacity (FIG. 6C) and respiration capacity (FIG. 6F) were calculated for treated cells with respect to untreated cells."}, "MDA-MB-436 cells": {"tested_on": "MDA-MB-436 cells", "assay": "Cellular adhesion assay (fibronectin, crystal violet)", "settings": "48 hours, varying doses", "method": "(§1) Cellular adhesion assay: 96-well tissue culture plates were coated with 20 ug/mL fibronectin (Sigma) overnight at 4° C. Cells were then seeded in the plates at a density of 10,000 cells/well. Cells were treated with varying doses of CT20p for 48 hours. Plates were then shaken at 1400 rpm for 15 seconds, washed, and fixed with 10% neutral buffered formalin (Leica). Adhered cells were stained with 5 mg/mL crystal violet (Sigma) and absorbance at 595 nm was read on an EnVision plate reader (Perkin Elmer).\n(§2) The effect of CT20p was examined on a panel of cell lines by measuring the impact on cellular adhesion. Metastatic cells vary their adhesion patterns as dictated by their environment (Cheung and Ewald 2014), and targeting adhesion ability could mitigate metastasis. To examine the cell lines, plates were coated with fibronectin to provide an appropriate substrate for adhesion, and cells were treated with CT20p for 48 hours at varying doses (FIG. 5A). […] Treating at this dose would allow us to observe the molecular effects of the peptide prior to cell death."}, "MDA-MB-231 cells [3]": {"tested_on": "MDA-MB-231 cells", "assay": "Cellular adhesion assay (fibronectin, crystal violet)", "settings": "48 hours, varying doses", "method": "as §1, §2"}, "MCF-10A cells": {"tested_on": "MCF-10A cells", "assay": "Cellular adhesion assay (fibronectin, crystal violet)", "method": "as §1, §2"}, "BT-549 cells": {"tested_on": "BT-549 cells", "assay": "Cellular adhesion assay (fibronectin, crystal violet)", "settings": "48 hours, varying doses", "method": "as §1, §2"}}, "note": "Residues, ends and D or L forms follow the SMILES beside them."}
{"smiles": "CC[C@H](C)[C@H](NC(=O)[C@@H](NC(=O)[C@H](CC(C)C)NC(=O)[C@H](CO)NC(=O)[C@H](C)NC(=O)[C@@H](NC(=O)[C@H](CC(C)C)NC(=O)[C@@H](NC(=O)CNC(=O)[C@H](C)NC(=O)[C@@H](NC(=O)[C@H](Cc1ccccc1)NC(=O)[C@@H](NC(=O)[C@@H](NC(=O)[C@@H](NC(C)=O)C(C)C)[C@@H](C)O)[C@@H](C)CC)C(C)C)C(C)C)[C@@H](C)O)[C@@H](C)O)C(=O)N[C@@H](Cc1c[nH]c2ccccc12)C(=O)N[C@@H](CCCCN)C(=O)N[C@@H](CCCCN)C(=O)N[C@@H](CCSC)C(=O)NCC(N)=O", "note": "[CT20] (Ac-VTIFVAGVLTASLTIWKKMG-NH2)", "values": [{"measurement": "Movement of mitochondria compared to controls", "setting": "MDA-MB-231 cells [1]", "result": "decreased four-fold"}, {"measurement": "Time by which cell death (anoikis, membrane asymmetry) was detected", "setting": "MDA-MB-231 cells [1]", "result": "≤ 48", "unit": "h"}, {"measurement": "Time at which cells began detaching from the substrate (fibronectin)", "setting": "MDA-MB-231 cells [1]; post-CT20 treatment", "result": 6, "unit": "h"}, {"measurement": "Time by which effector events (caspase activation, autophagy, increased ROS) were detected", "setting": "MDA-MB-231 cells [1]; post-CT20 treatment", "result": "≤ 24", "unit": "h"}, {"measurement": "Metabolic responses (glycolytic capacity, respiration capacity) that could explain the cytotoxicity pattern", "setting": "[2]", "result": "None of the cell lines displayed metabolic responses"}, {"measurement": "Effect on cellular adhesion", "setting": "MDA-MB-436 cells", "result": "dose-dependent loss of adhesion"}, {"measurement": "Effect on cellular adhesion", "setting": "MDA-MB-231 cells [3]", "result": "dose-dependent loss of adhesion"}, {"measurement": "Detachment of cells", "setting": "MCF-10A cells; 75 μg/mL of CT20p", "result": "does not cause detachment"}, {"measurement": "Effect on cellular adhesion", "setting": "MCF-10A cells; 48 hours, varying doses, fibronectin", "result": "particularly unaffected"}, {"measurement": "Effect on cellular adhesion", "setting": "BT-549 cells", "result": "particularly unaffected"}]}
